# Source: ChEMBL document CHEMBL4145516, “Rational design of novel TLR4 ligands by in silico screening and their functional and structural characterization in vitro” (2018)
# The source made the active and inactive calls. No cut-off for these calls is given here.
# What was measured:
# [1] = target: Toll-like receptor 4 (Homo sapiens) (UniProt O00206); test: Agonist activity at human TLR4 expressed in HEK-blue cells coexpressing MD2 at 1.07 10^-5M by SEAP reporter gene assay relative to MPLA; type: cell-based
# [2] = target: Toll-like receptor 4 (Homo sapiens) (UniProt O00206); test: Agonist activity at human TLR4 expressed in HEK-blue cells coexpressing MD2 at 1.07 10^-5M by SEAP reporter gene assay; type: cell-based
# PBMC = test: Immunostimulatory activity in human PBMC assessed as increase in IL-6 release at 10 uM after 24 hrs by ELISA; type: functional
# [3] = target: Toll-like receptor 4 (Homo sapiens) (UniProt O00206); test: Agonist activity at human TLR4 expressed in HEK-blue cells coexpressing MD2 at 0.99 10^-5M by SEAP reporter gene assay; type: cell-based
# [4] = target: Toll-like receptor 4 (Homo sapiens) (UniProt O00206); test: Agonist activity at human TLR4 expressed in HEK-blue cells coexpressing MD2 at 1.11 10^-5M by SEAP reporter gene assay relative to MPLA; type: cell-based
# [5] = target: Toll-like receptor 4 (Homo sapiens) (UniProt O00206); test: Agonist activity at human TLR4 expressed in HEK-blue cells coexpressing MD2 at 1.11 10^-5M by SEAP reporter gene assay; type: cell-based
# [6] = target: Toll-like receptor 4 (Homo sapiens) (UniProt O00206); test: Agonist activity at human TLR4 expressed in HEK-blue cells coexpressing MD2 at 1.06 10^-5M by SEAP reporter gene assay relative to MPLA; type: cell-based
# [7] = target: Toll-like receptor 4 (Homo sapiens) (UniProt O00206); test: Agonist activity at human TLR4 expressed in HEK-blue cells coexpressing MD2 at 500 ng/ml by SEAP reporter gene assay relative to MPLA; type: cell-based
# [8] = target: Toll-like receptor 4 (Homo sapiens) (UniProt O00206); test: Agonist activity at human TLR4 expressed in HEK-blue cells coexpressing MD2 at 1.15 10^-5M by SEAP reporter gene assay; type: cell-based
# Toll-like receptor 4 (Homo sapiens), sequence (O00206 whole entry): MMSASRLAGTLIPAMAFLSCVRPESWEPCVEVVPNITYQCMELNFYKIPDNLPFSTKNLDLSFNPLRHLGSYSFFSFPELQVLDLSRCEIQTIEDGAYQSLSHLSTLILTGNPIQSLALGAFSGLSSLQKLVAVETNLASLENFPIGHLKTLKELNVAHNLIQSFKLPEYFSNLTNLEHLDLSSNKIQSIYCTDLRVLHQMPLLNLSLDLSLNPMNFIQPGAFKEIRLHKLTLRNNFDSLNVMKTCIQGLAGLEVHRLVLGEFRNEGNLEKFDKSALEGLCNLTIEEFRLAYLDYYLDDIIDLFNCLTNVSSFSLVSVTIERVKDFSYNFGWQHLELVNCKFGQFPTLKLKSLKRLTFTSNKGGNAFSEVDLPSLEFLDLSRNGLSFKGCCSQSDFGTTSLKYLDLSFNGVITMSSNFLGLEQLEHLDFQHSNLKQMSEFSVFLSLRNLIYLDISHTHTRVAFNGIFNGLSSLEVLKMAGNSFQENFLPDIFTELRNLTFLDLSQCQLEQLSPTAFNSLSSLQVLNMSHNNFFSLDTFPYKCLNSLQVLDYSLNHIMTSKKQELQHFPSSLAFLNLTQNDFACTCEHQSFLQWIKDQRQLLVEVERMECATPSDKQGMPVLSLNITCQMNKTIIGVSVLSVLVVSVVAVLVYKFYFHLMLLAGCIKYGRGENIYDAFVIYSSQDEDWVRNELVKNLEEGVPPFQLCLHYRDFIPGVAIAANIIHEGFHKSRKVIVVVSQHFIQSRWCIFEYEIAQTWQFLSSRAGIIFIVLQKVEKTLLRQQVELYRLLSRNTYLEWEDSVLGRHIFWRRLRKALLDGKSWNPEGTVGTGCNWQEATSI
SMILES,Activity (PBMC),also measured
COc1ccc(CNC(=O)CCN2C(=O)C3C4c5ccccc5C(c5ccccc54)C3C2=O)cc1 (stereo not drawn),219.76 pg/mL,Activity [1]: 50%; Activity [2]: Active
O=C(CCN1C(=O)C2C3c4ccccc4C(c4ccccc43)C2C1=O)NC1CCCCCCC1 (stereo not drawn),212.56 pg/mL,
O=C(CCN1C(=O)C2C3c4ccccc4C(c4ccccc43)C2C1=O)NCc1ccc(Cl)c(Cl)c1 (stereo not drawn),inactive,Activity [3]: inactive
CC(C)CNC(=O)CCN1C(=O)C2C3c4ccccc4C(c4ccccc43)C2C1=O (stereo not drawn),inactive,
Cc1ccc(CNC(=O)CCN2C(=O)C3C4c5ccccc5C(c5ccccc54)C3C2=O)cc1 (stereo not drawn),5.76 pg/mL,Activity [4]: 50%; Activity [5]: Active
CC(C)(C)NC(=O)CCN1C(=O)C2C3c4ccccc4C(c4ccccc43)C2C1=O (stereo not drawn),inactive,
O=C(CCN1C(=O)C2C3c4ccccc4C(c4ccccc43)C2C1=O)NCc1ccc(Cl)cc1 (stereo not drawn),0.725 pg/mL,Activity [6]: 50%
CC(=O)Nc1ccc(-c2ccc(N3C(=O)C4C5c6ccccc6C(c6ccccc65)C4C3=O)cc2)cc1 (stereo not drawn),,Activity [7]: 30%
O=C(CCN1C(=O)C2C3c4ccccc4C(c4ccccc43)C2C1=O)NC1CCCCC1 (stereo not drawn),inactive,
O=C(CCN1C(=O)C2C3c4ccccc4C(c4ccccc43)C2C1=O)NCc1ccccc1 (stereo not drawn),inactive,Activity [8]: inactive
O=C(CCN1C(=O)C2C3c4ccccc4C(c4ccccc43)C2C1=O)NC1CCCCCC1 (stereo not drawn),7.3 pg/mL,
